According to patent US20100099694A1, “2-ANILINO-4-HETEROARYL PYRIMIDINE DERIVATIVES, AND PREPARATION THEREOF AS MEDICAMENTS, PHARMACEUTICAL COMPOSITIONS, AND IN PARTICULAR IKK INHIBITORS” (SANOFI-AVENTIS, priority 2007, published 2010):

SMILES | melting point
O=S(=O)(c1ccc(Nc2nccc(N3CCc4cc(F)ccc43)n2)cc1)N(CCN1CCCC1)C1CCN(CCC(F)(F)F)CC1 [Example 6, 4-[4-(5-Fluoro-2,3-dihydroindol-1-yl)-pyrimidin-2-ylamino]-N-(2-pyrrolidin-1-ylethyl)-N-[1-(3,3,3-trifluoropropyl)piperidin-4-yl]benzenesulphonamide] | 147 °C
O=S(=O)(c1ccc(Nc2nccc(N3CCc4cc(F)ccc43)n2)cc1)N(CCN1CCCC1)C1CCN(CCCC(F)(F)F)CC1 [Example 3, 4-[4-(5-Fluoro-2,3-dihydroindol-1-yl)-pyrimidin-2-ylamino]-N-(2-pyrrolidin-1-ylethyl)-N-[1-(4,4,4-trifluorobutyl)piperidin-4-yl]benzenesulphonamide] | 198 °C
O=S(=O)(c1ccc(Nc2nccc(N3CCc4cc(F)ccc43)n2)cc1)N(CCN1CCCC1)C1CCN(Cc2ccsc2)CC1 [Example 4, 4-[4-(5-Fluoro-2,3-dihydroindol-1-yl)pyrimidin-2-ylamino]-N-(2-pyrrolidin-1-ylethyl)-N-(1-thiophen-3-ylmethylpiperidin-4-yl)benzenesulphonamide] | 140 °C
Cn1cccc1CN1CCC(N(CCN2CCCC2)S(=O)(=O)c2ccc(Nc3nccc(N4CCc5cc(F)ccc54)n3)cc2)CC1 [Example 5, 4-[4-(5-Fluoro-2,3-dihydroindol-1-yl)-pyrimidin-2-ylamino]-N-[1-(1-methyl-1H-pyrrol-2-ylmethyl)piperidin-4-yl]-N-(2-pyrrolidin-1-ylethyl)benzenesulphonamide] | 94 °C

Further lines, results first:

melting point | SMILES
269.5 °C | O=S(=O)(c1ccc(Nc2nccc(N3CCc4cc(F)ccc43)n2)cc1)N(CCN1CCCC1)C1CCNCC1 [Example 1, 4-[4-(5-Fluoro-2,3-dihydroindol-1-yl)pyrimidin-2-ylamino]-N-piperidin-4-yl-N-(2-pyrrolidin-1-yl-ethyl)benzenesulphonamide]
139.3 °C | O=S(=O)(c1ccc(Nc2nccc(N3CCc4cc(F)ccc43)n2)cc1)N(CCN1CCCC1)C1CCN(CC(F)(F)F)CC1 [Example 7, 4-[4-(5-Fluoro-2,3-dihydroindol-1-yl)-pyrimidin-2-ylamino]-N-(2-pyrrolidin-1-ylethyl)-N-[1-(2,2,2-trifluoroethyl)piperidin-4-yl]benzenesulphonamide]
215.4 °C | O=S(=O)(c1ccc(Nc2nccc(N3CCc4cc(F)ccc43)n2)cc1)N(CCN1CCCC1)C1CCN(C2CC2)CC1 [Example 2, N-(1-Cyclopropylpiperidin-4-yl)-4-[4-(5-fluoro-2,3-dihydroindol-1-yl)pyrimidin-2-ylamino]-N-(2-pyrrolidin-1-ylethyl)benzenesulphonamide]
100 °C | O=S(=O)(c1ccc(Nc2nccc(N3CCc4cc(F)ccc43)n2)cc1)N(CCN1CCCC1)C1CCOCC1 [Example 8, 4-[4-(5-Fluoro-2,3-dihydroindol-1-yl)pyrimidin-2-ylamino]-N-(2-pyrrolidin-1-ylethyl)-N-(tetrahydropyran-4-yl)benzenesulphonamide]
